Where “and” joins values, the source holds several entries; their conditions need not be identical. Identical values can stand only once. Records with an inconclusive call do not appear. Calls of active or inactive are those of the source.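 Rule for the calls: active = valid dose-response fit whose half-maximal growth-inhibiting concentration is at or below a set limit above the top tested dose; inconclusive = flat fit with effect between 30 and 70%, or poor fit; inactive = half-maximal concentration above a set limit.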

The text below walks through data of PubChem BioAssay AID1259246 (Broad Institute, 2017).

The first experiment in a line: antibacterial activity against Clostridioides difficile – 10-point retest, dose response (AID 1259246). To be noted: Clostridioides difficile clinical isolate growth, OD600, 24 h; at 60 µM (top of the series).
On to `COc1ccccc1C#Cc1ccc([C@H]2[C@@H](C#N)N(C(=O)C3CCCCC3)[C@H]2CO)cc1`, for which the activity change, negative = inhibition was 5.31% (inactive).
Consider `COc1ccccc1CNC(=O)C[C@H]1C[C@@H]2c3cc(NC(=O)C4CCC4)ccc3O[C@@H]2[C@@H](CO)O1`, for which the activity change, negative = inhibition is 2.54% (inactive).
Consider `O=C(C[C@H]1C[C@@H]2c3cc(NC(=O)Nc4ccc(F)cc4)ccc3O[C@@H]2[C@@H](CO)O1)NC1CCCCC1`, for which the activity change, negative = inhibition is 0.486% (inactive).

The same experiment, now with this note: Clostridioides difficile clinical isolate growth, OD600, 24 h; at 120 µM (top of the series).
`C[C@H](CO)N1C[C@H](C)[C@@H](CN(C)C(=O)Nc2cccc3ccccc23)Oc2ccc(NC(=O)CCN3CCOCC3)cc2C1=O`: the activity change, negative = inhibition was 38.8% (inactive).
The same measure, in the same setting: in the case of `Cc1ccc(S(=O)(=O)N[C@H]2CC[C@H](CCNC(=O)c3ccc4c(c3)OCO4)O[C@H]2CO)cc1` it was -3.6% (inactive); in that of `Cc1ccc(S(=O)(=O)N2C[C@@H](O)COC[C@H]3O[C@H](CC(=O)NCc4ccc(Cl)c(Cl)c4)CC[C@@H]32)cc1`, 22.9% (inactive) and 25.2% (inactive) and 97.3% (inactive); in that of `O=C(N[C@H]1CC[C@H](CCNS(=O)(=O)Cc2ccccc2)O[C@H]1CO)c1cnccn1`, -2.56% (inactive).
For `C[C@@H]1CN([C@H](C)CO)S(=O)(=O)c2ccc(C3=CCCCC3)cc2O[C@H]1CN(C)Cc1ccccc1`, the activity change, negative = inhibition was 12.5% (inactive).
Take `COc1ccc(NC(=O)N(C)C[C@H]2Oc3ccc(NC(=O)C4CC4)cc3CC(=O)N([C@H](C)CO)C[C@H]2C)cc1`: the activity change, negative = inhibition is -3.71% (inactive).
Regarding `CNC[C@H]1Oc2cc(Br)ccc2S(=O)(=O)N([C@H](C)CO)C[C@@H]1C`, the activity change, negative = inhibition was 6.99% (inactive).
`C[C@H](CO)N1C[C@H](C)[C@@H](CN(C)Cc2ccc(Oc3ccccc3)cc2)Oc2ccc(NC(=O)C3CC3)cc2CC1=O`: the activity change, negative = inhibition is 33.9% (inactive).
`C[C@H]1CN([C@@H](C)CO)C(=O)c2cccc(NC(=O)Nc3ccccc3)c2O[C@@H]1CN(C)Cc1ccc(Oc2ccccc2)cc1`: the activity change, negative = inhibition is 27.9% (inactive).
Take `COc1ccc(NC(=O)Nc2ccc3c(c2)[C@H]2C[C@H](CC(=O)NCc4ccccc4F)O[C@@H](CO)[C@H]2O3)cc1`: the activity change, negative = inhibition was 3.92% (inactive).
For `COc1ccc(NC(=O)Nc2cccc3c2O[C@@H](CN(C)Cc2ccc(Oc4ccccc4)cc2)[C@H](C)CN([C@@H](C)CO)C3=O)cc1`, the activity change, negative = inhibition is 18.2% (inactive).
`CC(C)CC#Cc1ccc2c(c1)O[C@H](CN(C)Cc1ccccc1)[C@@H](C)CN([C@@H](C)CO)S2(=O)=O`: the activity change, negative = inhibition was 35.7% (inactive).
For the compound `CC(C)CC#Cc1ccc2c(c1)O[C@H](CN(C)Cc1ccccc1F)[C@H](C)CN([C@H](C)CO)S2(=O)=O`, the activity change, negative = inhibition is 21.7% (inactive).

Staying with this experiment, now noted: Clostridioides difficile clinical isolate growth, OD600, 24 h; at 135 µM (top of the series).
For the compound `C[C@H]1CN([C@@H](C)CO)C(=O)Cc2cc(NC(=O)C3CC3)ccc2O[C@@H]1CN(C)Cc1ccc(-c2ccccc2)cc1`, the activity change, negative = inhibition was 17.1% (inactive).
Regarding `C[C@@H]1CN([C@H](C)CO)C(=O)Cc2cc(NC(=O)C3CC3)ccc2O[C@@H]1CN(C)Cc1ccc(C(F)(F)F)cc1`, the activity change, negative = inhibition was 18% (inactive).
Still for that read-out and setting: the same measure for `O=S(=O)(Cc1ccccc1)NCC[C@H]1CC[C@H](NS(=O)(=O)c2ccc(F)cc2)[C@H](CO)O1`: -6.92% (inactive).
As to `CO[C@H]1CN(C)C(=O)c2cc(NC(=O)c3nc4ccccc4s3)ccc2OC[C@H](C)N(Cc2ccncc2)C[C@H]1C`, the activity change, negative = inhibition was 20.9% (inactive).
`C[C@@H]1CN([C@H](C)CO)C(=O)Cc2cc(NC(=O)CCC(F)(F)F)ccc2O[C@H]1CN(C)Cc1ccc(Oc2ccccc2)cc1`: the activity change, negative = inhibition is 25.5% (inactive).
As to `COc1ccc(S(=O)(=O)N(C)C[C@H]2Oc3ccc(NC(=O)C4CC4)cc3CC(=O)N([C@H](C)CO)C[C@H]2C)cc1`, the activity change, negative = inhibition was -2.76% (inactive).
